In patent US11077090B2, “Compounds and compositions and uses thereof” (Sunovion Pharmaceuticals Inc., priority 2016, dated 2021):
Read-outs that look alike come from different tables or passages of the source.

Test system: compound-treated mice
Experiment: Neuropharmacological assay (SmartCube): behavioral activity signature and minimal effective dose
Type: in vivo
Settings: for minimal effective dose: Mus musculus, ip; for AD: ADHD (probability of activity signature) / AG: analgesic (probability of activity signature) / AX: anxiolytic (probability of activity signature) / CE: cognitive enhancer (probability of activity signature) / DP: anti-depressant (probability of activity signature) / MS: mood stabilizer (probability of activity signature) / PS: anti-psychotic (probability of activity signature) / SD: sedative hypnotic (probability of activity signature) / UN: uncharacterized CNS activity (probability of activity signature): i.p. 15 min before test, most efficacious dose(s)
Summary of the method: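 Video-recorded behavior is compared algorithmically against a reference-compound database, yielding class probabilities (best dose reported). Compounds given i.p. in NMP/PEG/propylene glycol 15 min pre-test at 3 doses; potency as MED, the dose (mpk, range usually 0.3–30) reaching ≥50% total activity.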

[1] = MED = dose having 50% or more total activity, read-out: Potency: minimal effective dose (MED), binned
[2] = MED = dose having 50% or more total activity, read-out: Potency: minimal effective dose (MED)

SMILES	minimal effective dose [1] [mg/kg]	AD: ADHD (probability of activity signature)	AG: analgesic (probability of activity signature)	AX: anxiolytic (probability of activity signature)	CE: cognitive enhancer (probability of activity signature)	DP: anti-depressant (probability of activity signature)	MS: mood stabilizer (probability of activity signature)	PS: anti-psychotic (probability of activity signature)	SD: sedative hypnotic (probability of activity signature)	UN: uncharacterized CNS activity (probability of activity signature)	minimal effective dose [2] [mg/kg]	Potency: minimal effective dose (MED), binned (MED = dose having 50% or more total activity)
CC[C@@H]1OCc2ccc(F)cc2[C@@H]1N [Example 187]	< 3	+ (LOQ ≤ + <5%)	++ (5% ≤ ++ <25%)	++ (5% ≤ ++ <25%)	++ (5% ≤ ++ <25%)	+ (LOQ ≤ + <5%)	+ (LOQ ≤ + <5%)	+++ (25% ≤ +++ <50%)	+ (LOQ ≤ + <5%)	++++ (50% ≤ ++++)		
NC1COCc2ccc(F)cc21 (stereo not drawn) [Example 6]		+ (LOQ ≤ + <5%)	++ (5% ≤ ++ <25%)	++ (5% ≤ ++ <25%)	+ (LOQ ≤ + <5%)	++ (5% ≤ ++ <25%)	+ (LOQ ≤ + <5%)	+ (LOQ ≤ + <5%)	++ (5% ≤ ++ <25%)	++++ (50% ≤ ++++)	3 to 10	
C[C@@H]1OCc2ccccc2[C@H]1N.Cl (relative stereo) [Example 73, trans-3-methylisochroman-4-amine hydrochloride]		+ (LOQ ≤ + <5%)	++ (5% ≤ ++ <25%)	+++ (25% ≤ +++ <50%)	++ (5% ≤ ++ <25%)	++ (5% ≤ ++ <25%)	+ (LOQ ≤ + <5%)	++ (5% ≤ ++ <25%)	+ (LOQ ≤ + <5%)	+++ (25% ≤ +++ <50%)	< 3	
Cc1ccc2c(c1)[C@H](N)[C@H](C(C)C)OC2 [Example 211]	3 to 10	+ (LOQ ≤ + <5%)	+ (LOQ ≤ + <5%)	++ (5% ≤ ++ <25%)	+ (LOQ ≤ + <5%)	++ (5% ≤ ++ <25%)	+ (LOQ ≤ + <5%)	++ (5% ≤ ++ <25%)	+++ (25% ≤ +++ <50%)	++++ (50% ≤ ++++)		
Cc1ccc(C)c2c1COC[C@H]2N (single isomer, unassigned) [Example 165]	3 to 10	+ (LOQ ≤ + <5%)	+ (LOQ ≤ + <5%)	++ (5% ≤ ++ <25%)	++ (5% ≤ ++ <25%)	++ (5% ≤ ++ <25%)	+ (LOQ ≤ + <5%)	++ (5% ≤ ++ <25%)	+ (LOQ ≤ + <5%)	++++ (50% ≤ ++++)		
Cl.NC1COCc2ccc(Cl)c(Cl)c21 (stereo not drawn) [Example 44, 5,6-Dichloroisochroman-4-amine hydrochloride]		+ (LOQ ≤ + <5%)	++ (5% ≤ ++ <25%)	+++ (25% ≤ +++ <50%)	++ (5% ≤ ++ <25%)	++ (5% ≤ ++ <25%)	+ (LOQ ≤ + <5%)	++ (5% ≤ ++ <25%)	++ (5% ≤ ++ <25%)	+++ (25% ≤ +++ <50%)	3 to 10	
Cc1cc(C)c2c(c1)[C@@H](N)COC2 (single isomer, unassigned) [Example 126]		+ (LOQ ≤ + <5%)	++ (5% ≤ ++ <25%)	++ (5% ≤ ++ <25%)	++ (5% ≤ ++ <25%)	++ (5% ≤ ++ <25%)	+ (LOQ ≤ + <5%)	+++ (25% ≤ +++ <50%)	+ (LOQ ≤ + <5%)	++++ (50% ≤ ++++)	< 3	
Cc1cccc2c1[C@H](N)CO[C@@H]2C [Example 226]	10 to 30	+ (LOQ ≤ + <5%)	+ (LOQ ≤ + <5%)	++ (5% ≤ ++ <25%)	++ (5% ≤ ++ <25%)	++ (5% ≤ ++ <25%)	+ (LOQ ≤ + <5%)	+++ (25% ≤ +++ <50%)	+ (LOQ ≤ + <5%)	++ (5% ≤ ++ <25%)		
Cl.NC1COCc2ccc3c(c21)C1CCC3C1 (single isomer, unassigned) [Example 162]		+ (LOQ ≤ + <5%)	++ (5% ≤ ++ <25%)	+++ (25% ≤ +++ <50%)	++ (5% ≤ ++ <25%)	+ (LOQ ≤ + <5%)	+ (LOQ ≤ + <5%)	++ (5% ≤ ++ <25%)	+ (LOQ ≤ + <5%)	+++ (25% ≤ +++ <50%)		B (>3 to 10 mpk)
C[C@@H]1OCc2ccc(F)cc2[C@@H]1N [Example 185]	< 3	+ (LOQ ≤ + <5%)	++ (5% ≤ ++ <25%)	+++ (25% ≤ +++ <50%)	++ (5% ≤ ++ <25%)	+ (LOQ ≤ + <5%)	+ (LOQ ≤ + <5%)	++ (5% ≤ ++ <25%)	+ (LOQ ≤ + <5%)	++++ (50% ≤ ++++)		
CC[C@H]1OCc2ccccc2[C@@H]1N (single isomer, unassigned) [Example 193]	3 to 10	+ (LOQ ≤ + <5%)	++ (5% ≤ ++ <25%)	++ (5% ≤ ++ <25%)	++ (5% ≤ ++ <25%)	+ (LOQ ≤ + <5%)	+ (LOQ ≤ + <5%)	++ (5% ≤ ++ <25%)	++ (5% ≤ ++ <25%)	++++ (50% ≤ ++++)		
CC[C@@H]1OCc2ccccc2[C@@H]1N.Cl (single isomer, unassigned) [Example 198]	< 3	+ (LOQ ≤ + <5%)	+ (LOQ ≤ + <5%)	++ (5% ≤ ++ <25%)	++ (5% ≤ ++ <25%)	++ (5% ≤ ++ <25%)	+ (LOQ ≤ + <5%)	+++ (25% ≤ +++ <50%)	+ (LOQ ≤ + <5%)	+++ (25% ≤ +++ <50%)		
CN[C@@H]1COCc2ccc(Cl)c(Cl)c21 [Example 147]		+ (LOQ ≤ + <5%)	++ (5% ≤ ++ <25%)	++ (5% ≤ ++ <25%)	+ (LOQ ≤ + <5%)	++ (5% ≤ ++ <25%)	+ (LOQ ≤ + <5%)	+ (LOQ ≤ + <5%)	+ (LOQ ≤ + <5%)	++++ (50% ≤ ++++)	3 to 10	
Cc1ccc2c(c1C)[C@H](N)COC2 [Example 135]		+ (LOQ ≤ + <5%)	++ (5% ≤ ++ <25%)	+++ (25% ≤ +++ <50%)	++ (5% ≤ ++ <25%)	++ (5% ≤ ++ <25%)	+ (LOQ ≤ + <5%)	++ (5% ≤ ++ <25%)	++ (5% ≤ ++ <25%)	+++ (25% ≤ +++ <50%)	< 3	
CCCN[C@@H]1c2ccccc2CO[C@@H]1C.Cl [Example 269]	3 to 10	+ (LOQ ≤ + <5%)	+ (LOQ ≤ + <5%)	+ (LOQ ≤ + <5%)	+ (LOQ ≤ + <5%)	++ (5% ≤ ++ <25%)	++ (5% ≤ ++ <25%)	+ (LOQ ≤ + <5%)	++ (5% ≤ ++ <25%)	++ (5% ≤ ++ <25%)		
